Assays:
[1] = molecular target: gp120 (Human immunodeficiency virus type 1 group M subtype B, UniProt P03375); settings: peptide conjugated latex beads; for Agglutinin test, Colloidal gold conjugated gp120: protein contents 1 μg/ml; for Agglutinin test, gp120 protein: unlabelled gp120, contents 1 μg/ml
[2] = tested on: serum of hepatitis C or B patients, laboratory strain and freshly isolated strain, virus lysate conjugated colloidal gold; experiment: Specificity test with peptide conjugated latex beads against viruses (Table 17); assay type: binding
Excerpt: The virus that was in use in this enforcement example was serum, laboratory strain and a freshly isolated strain that was gathered from patients of hepatitis C or B at final stage. Then, we used virus lysate that conjugated colloidal gold as previously.

[3] = molecular target: HIV-1-gp120 (Immuno Diagnosis Co.), horseradish peroxidase labeled and enzyme unlabeled (HIV-1); experiment: Scatchard plot; HRP-labeled and unlabeled gp120 added to peptide carrier
[4] = molecular target: HIV-1 kk-1 (virus; gp120 on it) (HIV-1 kk-1); experiment: column absorption of KK-1 virus in human serum; p24 antigen ELISA
[5] = molecular target: HIV-1 kk-1 (virus; gp120 on it) (HIV-1 kk-1); experiment: column absorption of KK-1 virus in human serum; p24 antigen ELISA of lysed bound virus (starting material 2,350)
[6] = tested on: KK-1 (freshly isolated HIV); experiment: Investigation of neutralizing activity of HIV-1 (CPE in MT-4 cells), KK-1; assay type: cell-based; settings: content to inhibit infection (CPE), 6 days, NE = no effect
Excerpt: (§1) Then, we used AZT as a positive control.

[7] = tested on: HTLV-IIIB (laboratory strain); experiment: Investigation of neutralizing activity of HIV-1 (CPE in MT-4 cells), HTLV-IIIB; assay type: cell-based; settings: content to inhibit infection (CPE), 6 days, NE = no effect
Excerpt: as §1

[8] = Sample/Virus No. 1: HIV-1 IIIB, 1.0 × 10^5 TCID50
[9] = Sample/Virus No. 2: HIV-1 Lav 1, 1.0 × 10^5 TCID50
[10] = Sample/Virus No. 3: HIV-1 kk-1, 1.0 × 10^4.5 TCID50
[11] = Sample/Virus No. 4: HIV-2 Lav2, 1.0 × 10^6 TCID50
[12] = Sample/Virus No. 5: Serum of HCV patients, titer indistinct
[13] = Sample/Virus No. 6: Serum of HBV patients, titer indistinct
[14] = Sample/Virus No. 7: Hepatitis B surface antigen(HbsAg), 1.6 × 10^5 units
[15] = Sample/Virus No. 8: Valaricella Zoster valirus, 9.5 × 10^5 units
[16] = Sample/Virus No. 9: Argubella Zoster valirus (VZV), 4.9 × 10^5 units
[17] = Sample/Virus No. 10: HTLV-1 virul lysate, 1.1 × 10^5 units
[18] = Sample/Virus No. 11: human cytomegalovirus (HCMV), 5.5 × 10^5 units
[19] = Sample/Virus No. 12: Epstein-Barr virus(EB virus), 9.9 × 10^5 units

For Trp-Trp-Lys-Ala-Ala [No. 6 in Table 3], the “Agglutinin test, Colloidal gold conjugated gp120” value [1] was “Presence” and the “Agglutinin test, gp120 protein” value [1] was “Absence”.

With Asp-Val-Lys-Ala-Gly [No. 1 in Table 1] the “Agglutinin test, Colloidal gold conjugated gp120” value [1] was “Presence” and the “Agglutinin test, gp120 protein” value [1] was “Absence”.

For Table 1 No. 1 (DVKAG), the Presence of agglutinin [2, 8] was “+”, the Presence of agglutinin [2, 9] was “+” and the Presence of agglutinin [2, 10] was “+”. For the same substance, the Presence of agglutinin [2, 11] was “−”, the Presence of agglutinin [2, 12] was “−” and the Presence of agglutinin [2, 13] was “−”. For the same substance, the Presence of agglutinin [2, 14] was “−”, the Presence of agglutinin [2, 15] was “−” and the Presence of agglutinin [2, 16] was “−”. The Presence of agglutinin [2, 17] was “−”, the Presence of agglutinin [2, 18] was “−” and the Presence of agglutinin [2, 19] was “−”.

Substance “No. 1 peptide of Table 1 (Asp-Val-Lys-Ala-Gly) bound to Sephadex 6MB” has a Kd [3] of 0.214 nM.

In the case of “No. 12 peptide of Table 3 (Tyr-Tyr-Lys-Ala-Ala) bound to cellulose type carrier”, the percent of supplied virus absorbed [4] is reported as < 10% and the p24(S/CO), fraction of column absorption [5] is reported as 205 S/CO.

“Phe-Arg-Lys-Ala-Ala (FRKAA; printed: Phe-Arg-Lys-Ala-Ala) [No. 8 in Table 3]” was tested, and the “Anti-HIV neutralizing activity (μg/ml) KK-1” value [6] was 125 µg/mL and the “Anti-HIV neutralizing activity (μg/ml) HTLV-IIIB” value [7] was 125 µg/mL.

For Table 3 No. 6 (WWKAA), the Presence of agglutinin [2, 8] was “+”, the Presence of agglutinin [2, 9] was “+” and the Presence of agglutinin [2, 10] was “+”. The Presence of agglutinin [2, 11] was “−”, the Presence of agglutinin [2, 12] was “−” and the Presence of agglutinin [2, 13] was “−”. For the same substance, the Presence of agglutinin [2, 14] was “−”, the Presence of agglutinin [2, 15] was “−” and the Presence of agglutinin [2, 16] was “−”. The Presence of agglutinin [2, 17] was “−”, the Presence of agglutinin [2, 18] was “−” and the Presence of agglutinin [2, 19] was “−”.

With “No. 12 peptide of Table 3 (Tyr-Tyr-Lys-Ala-Ala) bound to Sephadex 4B” the Kd [3] was 0.497 nM.

Reference: US7291337B2, “Peptide having an affinity for gp120” (Aspion Co., Ltd., priority 2000, dated 2007)
